# Patent publication US10154988B2, “Methods and compositions for treating schizophrenia” (The Johns Hopkins University, priority 2012, dated 2018)
# Tested on: entorhinal cortex (EC) of aMCI subjects
# Test: fMRI activity in entorhinal cortex during lure stimuli correctly identified as similar
# Assay type: in vivo, human
# Conditions: 125 mg twice a day for two weeks vs placebo
# Procedure: A within-subjects trial of 8 weeks duration, involving 17 amnestic MCI (aMCI) subjects and 17 age-matched controls with a low dose treatment of levetiracetam is conducted. During the course of the study, each aMCI subject receives both drug and placebo treatments separately in two periods of two weeks each, with the order of treatments among different aMCI subjects being counterbalanced (see FIG. 7). Age-matched control subjects that are treated with placebo serve as a further control. Cognitive testing and fMRI imaging data are obtained from the subjects after each two week period of drug/placebo treatment. As described above, the drug treatment period is the two weeks preceding Visit 1 or 2 (with the two week period preceding the other Visit being the placebo phase). […] Imaging data are obtained through high-resolution methods developed in the Stark laboratory. Data are collected on a Phillips 3 Tesla scanner (Eindhoven, The Netherlands) equipped with an 8-channel SENSE (Sensitivity Encoding) head coil, located at the F.M. Kirby Research Center for Functional Brain Imaging at the Kennedy Krieger Institute (Baltimore, Md.). […] Group data are analyzed using a two-way Analysis of Variance (ANOVA) with trial types and group as fixed factors, and subject as a random factor nested within group. […]
smiles,measurement,value
"CC[C@@H](C(N)=O)N1CCCC1=O [levetiracetam, (2S)-2-(2-oxopyrrolidin-1-yl) butanamide]",EC activity during memory judgments (fMRI),normalizes activity
